What follows are molecules tested against T1, Ephrin type-B receptor 4 (Homo sapiens, UniProt P54760) (assay: EphB4-ephrin-B2 interaction antagonists, dose response, biochemical, TNYL-RAW peptide displacement (AID 835)).
T1 sequence (P54760 whole entry): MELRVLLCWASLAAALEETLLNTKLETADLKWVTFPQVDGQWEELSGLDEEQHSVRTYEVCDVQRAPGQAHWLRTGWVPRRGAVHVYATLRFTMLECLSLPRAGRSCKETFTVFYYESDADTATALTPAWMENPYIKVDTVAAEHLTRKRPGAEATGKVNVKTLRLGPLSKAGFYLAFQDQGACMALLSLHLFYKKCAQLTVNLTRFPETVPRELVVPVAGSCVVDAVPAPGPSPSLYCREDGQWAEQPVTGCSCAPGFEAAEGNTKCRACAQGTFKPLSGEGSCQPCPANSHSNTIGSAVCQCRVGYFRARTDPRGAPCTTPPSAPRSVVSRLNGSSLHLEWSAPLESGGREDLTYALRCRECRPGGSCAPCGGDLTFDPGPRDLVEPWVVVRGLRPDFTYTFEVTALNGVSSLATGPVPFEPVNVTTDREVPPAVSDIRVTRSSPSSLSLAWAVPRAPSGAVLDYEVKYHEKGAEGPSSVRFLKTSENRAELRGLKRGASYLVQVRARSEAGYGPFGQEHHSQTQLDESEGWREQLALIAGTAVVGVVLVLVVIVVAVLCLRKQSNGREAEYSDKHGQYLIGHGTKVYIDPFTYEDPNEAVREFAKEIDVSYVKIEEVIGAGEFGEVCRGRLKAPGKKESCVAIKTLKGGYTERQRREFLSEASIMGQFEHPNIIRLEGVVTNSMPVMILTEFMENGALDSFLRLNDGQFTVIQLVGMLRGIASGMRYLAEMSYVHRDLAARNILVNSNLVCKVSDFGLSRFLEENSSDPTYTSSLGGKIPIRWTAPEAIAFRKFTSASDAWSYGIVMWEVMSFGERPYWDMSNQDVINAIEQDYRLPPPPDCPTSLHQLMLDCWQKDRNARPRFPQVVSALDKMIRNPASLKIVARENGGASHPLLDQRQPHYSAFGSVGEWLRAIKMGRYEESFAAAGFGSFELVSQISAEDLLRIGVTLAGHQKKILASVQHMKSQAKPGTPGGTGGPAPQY

Compound	IC50
COc1cccc(C(C#N)N2CCOCC2)c1 (configuration not stated) [2-(3-methoxyphenyl)-2-(4-morpholinyl)acetonitrile]	> 79.4 µM
CN(c1ccc(Cl)cc1)c1cc(=O)n(C)c2ccccc12 [4-(4-chloro-N-methyl-anilino)-1-methyl-carbostyril]	> 79.4 µM
CCOc1cccc(-n2c(O)cc(=O)[nH]c2=O)c1	> 79.4 µM
O=C(NC(Cc1ccccc1)c1nc2ccccc2[nH]1)C1CC(=O)N(c2ccc3c(c2)OCCO3)C1 (configuration not stated) [MLS000053466]	> 79.4 µM
COc1cccc(OC)c1-c1nn2c(-c3cc(-c4ccccc4)n[nH]3)nnc2s1 [MLS000083027]	> 79.4 µM
Cc1ccc(Cn2c(SCCN3CCCCC3)nc3c2c(=O)n(C)c(=O)n3C)cc1 [1,3-Dimethyl-7-(4-methyl-benzyl)-8-(2-piperidin-1-yl-ethylsulfanyl)-3,7-dihydro-purine-2,6-dione]	> 79.4 µM
Cc1cc(C)c(S(=O)(=O)NCc2cn3c(C)csc3n2)cc1C [2,4,5-trimethyl-N-[(3-methyl-6-imidazo[2,1-b]thiazolyl)methyl]benzenesulfonamide]	> 79.4 µM
O=S(=O)(N1CCOCC1)N1CCN(c2ccccc2F)CC1 [4-[4-(2-fluorophenyl)piperazin-1-yl]sulfonylmorpholine]	> 79.4 µM
O=C(COC(=O)C(Cc1ccccc1)NC(=O)c1ccco1)NC1CC1 (configuration not stated) [2-(2-furoylamino)-3-phenyl-propionic acid [2-(cyclopropylamino)-2-keto-ethyl] ester]	> 79.4 µM
Cc1cccc(NC(=O)CSc2nnc(-c3ccc(S(=O)(=O)N4CCCC4)cc3)o2)c1 [2-{5-[4-(Pyrrolidine-1-sulfonyl)-phenyl]-[1,3,4]oxadiazol-2-ylsulfanyl}-N-m-tolyl-acetamide]	> 79.4 µM
CCc1cccc2c(C#N)cn(CC(=O)N3CCOCC3)c12 [7-ethyl-1-[2-(4-morpholinyl)-2-oxoethyl]-1H-indole-3-carbonitrile]	> 79.4 µM
COc1ccc2[nH]c(=O)c(CN(Cc3ccccc3)Cc3nnnn3CC3CCCO3)cc2c1 (configuration not stated) [3-({Benzyl-[1-(tetrahydro-furan-2-ylmethyl)-1H-tetrazol-5-ylmethyl]-amino}-methyl)-6-methoxy-1H-quinolin-2-one]	> 79.4 µM
CN(C(=O)N1CCN(c2ccccn2)CC1)c1ccccc1 [MLS000534907]	> 79.4 µM
Cc1[nH]c2ccccc2c1/C=C1\N=C(c2ccc(C(F)(F)F)cc2)OC1=O [SMR000152363]	> 79.4 µM
O=C(O)CCC(=O)N1CCN(c2nc(-c3ccccc3Cl)c3cc(Br)ccc3n2)CC1 [4-[4-[6-bromanyl-4-(2-chlorophenyl)quinazolin-2-yl]piperazin-1-yl]-4-oxidanylidene-butanoic acid]	> 79.4 µM
O=C(CSc1nnc(-c2ccccn2)n1Cc1ccccc1)NC1CCCC1 [2-(4-Benzyl-5-pyridin-2-yl-4H-[1,2,4]triazol-3-ylsulfanyl)-N-cyclopentyl-acetamide]	> 79.4 µM
CN1C(=O)S/C(=C/c2cccnc2)C1=O [(5E)-3-methyl-5-(3-pyridinylmethylidene)thiazolidine-2,4-dione]	> 79.4 µM
Cc1cc(C(=O)CN2C(=O)NC(c3ccccc3)(c3ccccc3)C2=O)c(C)n1Cc1ccccc1 [3-[2-(1-benzyl-2,5-dimethyl-pyrrol-3-yl)-2-keto-ethyl]-5,5-diphenyl-hydantoin]	> 79.4 µM
CCOC(=O)C1=C(c2ccccc2)N2C=CS(=O)(=O)NC2S1 (configuration not stated) [MLS000048572]	> 79.4 µM
CC(=O)c1ccc(N2CCN(C(=O)c3ccc(Br)cc3)CC2)c(F)c1 [1-[4-[4-(4-bromobenzoyl)piperazin-1-yl]-3-fluorophenyl]ethanone]	> 79.4 µM
Cc1cccc2c(C(=O)O)c3c(nc12)CCCCC3 [4-methyl-7,8,9,10-tetrahydro-6H-cyclohepta[b]quinoline-11-carboxylic acid]	> 79.4 µM
O=C(Nc1nc2n(n1)C(c1ccc(Cl)cc1)CC(c1ccc(Cl)cc1)N2)c1ccco1 (configuration not stated) [SMR000045014]	> 79.4 µM
C=CCn1c(NCCc2ccccc2)nc2c1c(=O)n(C)c(=O)n2C [1,3-dimethyl-8-(2-phenylethylamino)-7-prop-2-enyl-purine-2,6-dione]	> 79.4 µM
CC1=C(C(=O)N2CCC3(CC2)OCCO3)C2(CCC(C)CC2)OC1=O (configuration not stated) [4-(1,4-dioxa-8-azaspiro[4.5]dec-8-ylcarbonyl)-3,8-dimethyl-1-oxaspiro[4.5]dec-3-en-2-one]	> 79.4 µM

Compound	IC50
Cn1cc(S(=O)(=O)N2CCN(c3ccccc3)CC2)c(=O)n(C)c1=O [1,3-dimethyl-5-(4-phenylpiperazin-1-yl)sulfonyl-pyrimidine-2,4-dione]	> 79.4 µM
Cc1[nH]c2ccccc2c1/C=C1\N=C(c2ccc(F)cc2)OC1=O [2-(4-fluorophenyl)-4-[(2-methyl-1H-indol-3-yl)methylene]-1,3-oxazol-5(4H)-one]	> 79.4 µM
COC(=O)c1ccc(COc2ccc3c(C)c(C)c(=O)oc3c2C)o1 [5-[(2-keto-3,4,8-trimethyl-chromen-7-yl)oxymethyl]furan-2-carboxylic acid methyl ester]	> 79.4 µM
Cc1c2cc(O)c(=O)cc-2oc2cc(O)c(O)cc12 [2,6,7-Trihydroxy-9-methyl-xanthen-3-one]	3.6 µM
Cn1c(=O)c(NCCc2ccccc2)c2c3c(cccc31)C(=O)c1ccccc1-2 [3-Methyl-1-phenethylamino-3H-naphtho[1,2,3-de]quinoline-2,7-dione]	1 µM
CCCCCCOC(=O)C(C#N)c1nc2ccccc2nc1N1CCN(C)CC1 (configuration not stated) [2-cyano-2-[3-(4-methyl-1-piperazinyl)-2-quinoxalinyl]acetic acid hexyl ester]	> 79.4 µM
CCCOC(=O)C(C)n1cnc2sc(C)c(C)c2c1=O (configuration not stated) [2-(4-keto-5,6-dimethyl-thieno[2,3-d]pyrimidin-3-yl)propionic acid propyl ester]	> 79.4 µM
O=C(CN1C(=O)NC2(CCCC2)C1=O)NCCC1=CCCCC1 [2-[2,4-bis(oxidanylidene)-1,3-diazaspiro[4.4]nonan-3-yl]-N-[2-(cyclohexen-1-yl)ethyl]ethanamide]	> 79.4 µM
CCOc1ccc(NC(=O)C(C)Oc2ccccc2C(=O)Nc2ccc(C)c(Cl)c2)cc1 (configuration not stated) [MLS000581136]	> 79.4 µM
O=C(N/N=C/c1ccncc1)c1cc([N+](=O)[O-])cc([N+](=O)[O-])c1O [MLS000541056]	> 79.4 µM
COc1ccc(C(=O)NN=C2SCC(=O)N2Cc2ccc3c(c2)OCO3)cc1OC [3,4-Dimethoxy-benzoic acid (3-benzo[1,3]dioxol-5-ylmethyl-4-oxo-thiazolidin-2-ylidene)-hydrazide]	> 79.4 µM
CCCc1nnc(NC(=O)CNc2ccc(F)cc2)s1 [2-(4-fluoroanilino)-N-(5-propyl-1,3,4-thiadiazol-2-yl)acetamide]	> 79.4 µM
CC(=O)Nc1cccc(NC(=O)CSc2nnc(Cc3cccn3C)n2-c2ccc(C)cc2)c1 [MLS000092946]	> 79.4 µM
CC(=O)Nc1ccc(SCC(=O)OCC(=O)NC(=O)NCc2ccco2)cc1 [2-[(4-acetamidophenyl)thio]acetic acid [2-(2-furfurylcarbamoylamino)-2-keto-ethyl] ester]	> 79.4 µM
CCOC(=O)c1sc2nc(C)c3c(c2c1N)CC(C)(C)OC3 [1-Amino-5,8,8-trimethyl-8,9-dihydro-6H-7-oxa-3-thia-4-aza-cyclopenta[a]naphthalene-2-carboxylic acid ethyl ester]	> 79.4 µM
O=[N+]([O-])/C=C/c1cn(Cc2ccc(F)cc2)c2ccccc12 [MLS000577100]	> 79.4 µM
Cn1c(=O)c(NCCO)c2c3c(cccc31)C(=O)c1ccccc1-2 [1-(2-Hydroxy-ethylamino)-3-methyl-3H-naphtho[1,2,3-de]quinoline-2,7-dione]	8.4 µM
Cc1ccc(-c2nc3cccnc3o2)cc1NC(=O)COc1ccc(C(C)(C)C)cc1 [2-(4-tert-butylphenoxy)-N-(2-methyl-5-[1,3]oxazolo[5,4-b]pyridin-2-ylphenyl)acetamide]	> 79.4 µM
CN(c1ccccc1C(=O)Nc1ccccc1C(=O)NCc1ccco1)S(C)(=O)=O [MLS000049900]	> 79.4 µM
Cc1cc(OC(=O)c2ccco2)c2c3c(c(=O)oc2c1)CCCC3 [(3-methyl-6-oxidanylidene-7,8,9,10-tetrahydrobenzo[c]chromen-1-yl) furan-2-carboxylate]	> 79.4 µM
O=C(CN(Cc1cccs1)C(=O)CSc1nnc(COc2ccccc2)o1)NC1CCCC1 [MLS000077370]	> 79.4 µM
Cc1ccc(N2C(=O)C(O)(C(F)(F)F)C3=C2CC(C)(C)CC3=O)cc1C (configuration not stated) [1-(3,4-dimethylphenyl)-3-hydroxy-6,6-dimethyl-3-(trifluoromethyl)-3,5,6,7-tetrahydro-1H-indole-2,4-dione]	> 79.4 µM
Cc1ccc(-n2ncc3c(=O)n(CC(=O)N4CCCCCC4)cnc32)cc1 [5-(2-azepan-1-yl-2-oxoethyl)-1-(4-methylphenyl)-1,5-dihydro-4H-pyrazolo[3,4-d]pyrimidin-4-one]	> 79.4 µM

— BindingDB's records for doi:10.7270/Q2KP80J0 (The Scripps Research Institute Molecular Screening Center, 2007)
